From US20150250746A1, “ACAMPROSATE FORMULATIONS, METHODS OF USING THE SAME, AND COMBINATIONS COMPRISING THE SAME” (Synchroneuron Inc., priority 2013, published 2015)

Legend:
abnormal movements = assay: Transgenic mouse models with movement disorders and hyperglutamatergic states; type: in vivo; conditions: steadily-maintained blood level; Per2(Brdm1) deletion or ENT1(-/-) mice
[1] = cited from earlier work
[2] = tested on: cultured rat hippocampus neurons; assay: Organotypic hippocampal slice model of glutamate neurotoxicity; type: cell-based; conditions: 200 μM calcium acamprosate 8 hr or 5 days, removed from medium for up to eight hours
Procedure: The study is designed to test whether pre-treatment with acamprosate can have long-term neuronal protective effects against glutamate neurotoxicity. The study uses an in vitro organotypic hippocampal slice model. The study assesses whether less than 24 hours per day of exposure to a sufficient level of acamprosate can offer 24-hour therapeutic actions in neuropsychiatric disorders. […] This supports, among other things, the therapeutic use of acamprosate in neuropsychiatric disorders because the latter are related to the effect of acamprosate to decrease glutamate effects at NMDA and metabotropic glutamate receptors.
Hippocampal slices derived from 8-day-old Sprague Dawley rats are plated and subsequently exposed to a relatively acute (8 hour) or more chronic (5 day) acamprosate treatment. The slices are then removed from the medium containing acamprosate and returned to control medium for either 1 or 8 hours. […] The slices are then placed in normal medium with propidium iodide for 24 hr and assessed for neurotoxicity/neuroprotection as described below. […]
Neurotoxicity/neuroprotection assessment: For the final medium change, the plates are moved into normal media containing propidium iodide (PI) added to each well for 24 hours. PI only penetrates cell membranes of damaged or potentially dying cells, binding to DNA to produce a bright, intensified red fluorescence at 630 nm. […]

[3] = tested on: abnormal chewing movements; assay: Rat model of tardive dyskinesia (haloperidol-induced abnormal chewing movements); type: in vivo; conditions: steadily-maintained blood level; haloperidol-exposed rats
Procedure: Acamprosate is tested using a rat model of tardive dyskinesia looking at abnormal chewing movements produced in rats by exposing them for several weeks to haloperidol, a potent first-generation neuroleptic. […] Rats then are dosed with acamprosate in a way that matches the therapeutic blood level for no more than 12 hours out of 24, to confirm that this reduces the involuntary movements.

[4] = in vivo; cited from earlier work
tardive dyskinesia = assay: Clinical cases: acamprosate in patients with tardive dyskinesia; type: in vivo, human; conditions: for relief of TD involuntary movements: Case 2
Procedure: Case 1: A person had long-standing tardive dyskinesia induced by treatment of schizoaffective disorder with a variety of neuroleptics and mood stabilizers. Their TD was characterized by side to side movements of the jaw, grimacing movements, rocking of the trunk, and continual involuntary kicking, leg-crossing, and twisting movements of their legs and feet. At the time they presented for treatment of their TD they were treated for their mental illness with lamotrigine and quetiapine, a second-generation neuroleptic.
To test the hypothesis that the efficacy of acamprosate was related to adequate time above a threshold blood level the patient was asked to try taking 1332 mg of acamprosate once a day.
CASE 2: A person had been treated with acamprosate for several years for TD due to exposure to several neuroleptics for schizoaffective disorder. They were currently treated with lamotrigine and quetiapine for their mental illness, and was taking acamprosate 1032 mg+999 mg+1032 mg on a three times daily basis. […] To test the therapeutic threshold hypothesis the patient was asked to try 1032 mg of acamprosate once a day in the morning. […] They noted that when they got relief of their involuntary movements they also had less anxiety and agitation than when the movements were present.

[5] = Gastric retention of swellable acamprosate tablet in dog model, induction of fed mode with alpha-lipoic acid; type: in vivo; conditions: of 800 mg swellable acamprosate tablet after 125 mg alpha-lipoic acid given 15 minutes before; four beagle dogs

Structure (SMILES)	abnormal movements (abnormal movements)	solubility [1]	solubility in gastric juice [1]	protection of neurons from challenge with a toxic level of a glutamate agonist [2]	abnormal chewing movements [3]	decrease of bioavailability by food [4]	relief of TD symptoms (tardive dyskinesia; Case 1, 666 mg three times a day)	relief of TD symptoms (tardive dyskinesia; Case 1, 999 mg three times a day)	anxiety and agitation (tardive dyskinesia; Case 1, 999 mg three times a day with perphenazine)	relief of TD symptoms (tardive dyskinesia; Case 1, 1332 mg once a day)	side effects (tardive dyskinesia; Case 1, 1332 mg once a day)	relief of TD involuntary movements (tardive dyskinesia; 999 mg three times a day)	relief of TD involuntary movements (tardive dyskinesia; 1032 mg morning plus second dose of 1032 mg 8 to 10 hours later)	relief of TD involuntary movements (tardive dyskinesia; 1032 mg once a day in the morning)	relief of TD involuntary movements (tardive dyskinesia; 1032 mg+999 mg+1032 mg three times daily)	Average gastric retention time [5] [h]	Maximum gastric retention time [5] [h]	Minimum gastric retention time [5] [h]
CC(=O)NCCCS(=O)(=O)O [acamprosate, calcium N-acetylhomotaurinate]	reduce or eliminate the abnormal movements	high solubility	immediately and completely soluble	persistent effect	reduce or eliminate the abnormal movements	approximately 30%	partial relief of symptoms	complete relief of their TD	relief of anxiety and agitation	free of involuntary movements of TD	significant GI side effects of diarrhea and abdominal cramps	did not give full relief	complete relief of symptoms	free of movements in the morning and early afternoon but movements returned in the evening	completely relieved their involuntary movements of TD			
O=C(O)CCCCC1CCSS1 (stereo not drawn) [alpha-lipoic acid]																2.8	5	1.5
